Source: patent US5723496A, “Method for prevention and treatment of harmful effects of intracellular acidosis” (priority 1995, dated 1998)
Several values for one entry are separate records, joined by “and”; a condition that tells them apart may be missing. Equal values may be shown once. Entries after “also recorded” stand apart in the source; their conditions may differ. Where a name gives a salt, the structure may show the parent alone. Read-outs that look alike come from different tables or passages of the source.

Tests used:
[1] = test system: mouse brain intracellular acidosis; test: in vivo brain pH before and after 2 min anoxia (Example 4); design: species or system mice; details: for brain pH after anoxia / brain pH before anoxia: mice, 3.75 mmole/kg/day i.p., 14 days; for brain pH after anoxia: 2 min anoxia
Description: Using the same experimental procedure as in Example 3, in vivo pH buffering property of guanidinoethanesulfonic acid against the in vivo intracellular acidosis and pH depression caused by anoxia was evaluated.
Aqueous solution of guanidinoethanesulfonic acid (0.3M) was administered daily intraperitoneally to five mice at a dose of 3.75 mmole/kg/day for a period of 14 days. The same number of control mice (5) received intraperitoneal administration of physiological saline solution at a dose of 0.25 ml/animal/day for the same period (14 days).
After the 14 days of administration period of GES or saline, animals were placed in a chamber filled with pure 100% nitrogen for 2 minutes to produce the anoxia state. The pH of the brain was measured in vivo before and after the anoxia by the technique of ^31 P spectroscopy using Omega-7 Tesla Magnetic Resonance Spectrophotometer.

gerbil brain = test: intracellular pH of gerbil brain (31P NMR); type: in vivo; details: mean and standard deviation; p<0.05 (t-test) vs saline 7.17; sulfate
Description: Intracellular pH measurement of gerbil brain was performed non-invasively using ^31 P nuclear magnetic resonance (NMR) in vivo spectroscopy. AGE Omega CSI-7T (useful bore 120 mm, horizontal, 7T) was used.
Gerbils were divided into […] of 7 animals each. Control group received saline. Saline ischemia group received saline. GES group received GES. Gerbils were anesthetized with pentobarbital, 50 mg/kg. Gerbils were held in a padded holder which was placed in the probe chamber containing a one turn round surface coil (5 mm diameter) tunable to the resonance frequency of proton and ^31 P. To avoid signal contamination, the scalp and temporal muscle were retracted. The body temperature was kept at 37° C. using a non-magnetic heating pad. Field homogeneity was maximized by skimming on tissue water proton signals. ^31 P spectra were obtained using a one pulse sequence at 121.67 MHz with a spectral width of 10K and stored into 4K memory blocks (recycle time 2.7 sec). The broad resonance with short T2 on ^31 P spectra was removed by the convolution difference technique. Line broadening of 30 Hz was applied as noise filter.

CA1 neurons = test: neuronal density in CA1 region, gerbil forebrain ischemia model; type: in vivo
Description: The gerbil forebrain ischemia model of Kirino (REFERENCE, please) was employed as follows.
Animals were divided into 4 groups. Two groups of 5 animals each served as control.
First control group was administered daily for fourteen days 0.25 ml of saline. No ischemia was induced.
Second control group was administered 0.25 ml of 625 mg/kg of GES daily for fourteen days. No ischemia was induced.
Third group of ten animals was control ischemia group. This group was administered with 0.25 ml of saline daily for 14 days. Then, the ischemia was induced.
Fourth group of 16 animals was administered 0.25 ml of 625 mg/kg of GES for 14 days, followed by induced ischemia.
Animals were anesthetized with 1% halothane, 70% nitrous oxide, and 29% oxygen. The subscalp and rectal temperature were monitored and kept constant at 37° C. using a controlled heating system starting 30 minutes prior to one hour after induction of ischemia. Ischemia in experimental groups (saline and GES ischemia groups) was induced by occlusion of the carotid arteries bilaterally for 5 minutes using small aneurysm clips. Animals in the two control groups (saline and GES controls) received sham surgery but no ischemia was induced.
Seven days after induced ischemia and recirculation, animals were perfused transcardially with 50 cc of normal saline followed by 500 cc of 5% paraformaldehyde in 0.1M phosphate buffer (pH=7.3), at 100 cm H2 O, under deep pentobarbital anesthesia. Brains were removed and fixed in the same buffered paraformaldehyde solution for 14 days. Sections (6 μm thick) containing the dorsal hippocampus at the level 1.4-1.7 mm posterior to the bregma were prepared on a cryostat from paraffin embedded brain. Sections were stained with hematoxylin and eosin and examined in a double blinded fashion. The number of viable neurons within the CA1 region was counted using an Olympus BH-2 microscope at ×400. The results represents the average of the counts.

anaerobic glycolysis = test: brain lactate after 2.5 min anoxia; type: in vivo, Adult Swiss mice
Description: (§1) Adult Swiss mice (BK-1 male 20 g) purchased from Bantin & Kingman, Fremont, Calif., were used. Each batch consisted of 15 mice. Within each batch, five mice were selected randomly to be in the GES, taurine, or control group. A taurine group was included to serve as additional control.
Brain lactate levels were determined for mice exposed to 2.5 minutes of anoxia as follows. Animals were exposed to 2.5 minutes of anoxia under pentobarbital anesthesia. Immediately after the exposure, animals were immersed into a liquid nitrogen. The frozen brains were removed by chiseling and extracted as described above. Lactate concentration was determined using the lactate dehydrogenase reaction.

[2] = observation of behavior and respiratory pattern; type: in vivo, Adult Swiss mice; details: two weeks i.p.
Source text: as §1

[3] = charge state in brain cytosol from pKa; details: sulfate
Source text: (Soc. Neurosci., 21 Annual Meeting, Abstract, 1078, Oct. 5, 1992). Entry of GES across the blood-brain barrier (BBB) is likely to be in the uncharged form. Following free diffusion into the cytosol, the ratio between uncharged and charged forms will equilibrate according to cytosolic pH and the pKa value of GES.
Following free diffusion into cytosol, the ratio between charged (RH3^+) and uncharged forms will equilibrate according to cytosolic pH and their respective pKa values.

[4] = in vivo, sulfate, cited from earlier work
[5] = listed as guanidinoethane sulfate

In the case of `N=C(N)NCCS(=O)(=O)O` [GES, guanidinoethane sulfate], the “brain pH after anoxia” value [1, 5] is reported as 7.05±0.05, the “brain pH before anoxia” value [1, 5] is reported as 7.16±0.04 and the “brain pH after anoxia” value ([1]; sulfate) is reported as 7.05. For the same compound, the “brain pH before anoxia” value ([1]; sulfate) was 7.16, the “prevention of decrease in brain pH (in words)” value ([1]; p<0.05, listed as guanidinoethane sulfate) was “effectively protects the brain cell from the acidosis damage” and the “prevention of decrease in brain pH (in words)” value ([1]; p<0.05, sulfate) was “significantly (p<0.05) prevented the decrease in the cellular pH”. The “intracellular pH of gerbil brain” value (gerbil brain) was 7.26 and 7.25±0.07 and 7.25, the “neuroprotection of CA1 neurons (in words)” value (CA1 neurons; 7 days after 5 min bilateral carotid occlusion, sulfate) was “significant nueroprotection on CA1 neurons; also recorded: Significantly higher neuronal density” and the neuronal density in CA1 region, no ischemia (CA1 neurons; GES control group (n=5), sham surgery) was 249 ± 9.4 /mm. The “CA1 neuronal density, ischemia” value (CA1 neurons; GES ischemia group) was 61.1±55.11 /mm, the neuronal density in CA1 region, ischemia (CA1 neurons; GES ischemia group (n=16), 5 min occlusion, 7 days, p<0.05) was 61.1 ± 55.1 /mm and the “protective activity by CA1 neuronal density vs saline ischemia” value (CA1 neurons; in vivo) was “four times higher”. The Lactate (anaerobic glycolysis; Table 4, n = 5, post 2.5 min anoxia) was 0.50 ± 0.07 mM, the “lactate levels post 2.5 min anoxia (in words)” value (anaerobic glycolysis; among three groups) was “essentially identical among the three groups” and the “observable adverse effects in behavior or respiratory pattern” value [2] was “did not show any observable adverse effects”. For the same compound, the “charge state in brain cytosol (in words)” value [3] was “virtually all GES in brain cytosol is in the charged form”, the “blood-brain barrier crossing (in words)” value ([4]; listed as Guanidinoethanesulfonic acid) was “ability to cross the blood-brain barrier” and the “blood-brain barrier crossing (in words)” value [4] was “crosses the blood brain barrier in the uncharged form”.
